From patent US10434167B2 (priority 2014, dated 2019)

System: Human red blood cells
Test: Hemolytic assay (hemolysis of red blood cells by QS-21/saponin with or without liposomes)
Type: cell-based
Details: 22° C.
Text: Hemolysis of red blood cells was used as a measure both of the relative amount of free QS-21, and of the toxicity of QS-21 under the indicated experimental conditions. Human red blood cells were purchased from the Research Blood Components LLC (Boston, Mass., USA) under a Walter Reed Army institute of Research protocol reviewed by the independent Institutional Review Board, Division of Human Subjects. Erythrocytes were washed with PBS and were quantified by a Beckman Coulter counter model ACT10 (Indianapolis Ind., USA). In each assay of this study, hemolytic activity of QS-21 incubated with or without liposomes was determined in 220 μl volume and each step of the assay was performed at room temperature (22° C.). One hundred microliters of QS-21 dilution was incubated with 100 μl of liposomes, or PBS only, on a Daigger Rocker (Vernon Hills, Ill., USA) for 15 minutes. After mixing the liposomes, 2×10^7 erythrocytes in 20 μl of PBS were added to the mixture and incubated on a Daigger Rocker for an additional 30 minutes. Plates were centrifuged at 800×g for 6 min. Supernatant was transferred to a polystyrene 96-well plate, and absorbance was read at 541 nm. Hemolysis by QS-21 binding to liposomal Chol was expressed as % of maximum hemolysis by free QS-21.
The hemolytic activities of liposome compositions with QS-21 were characterized first by varying QS-21 concentration. […] Red blood cells were added to the mixture of liposome-QS-21, and incubated for 30 minutes. Free QS-21 served as positive control. Cells were centrifuged and the optical density of supernatant was measured at 541 nm to reflect the levels of hemolysis.

## QS-21
QS-21 pre-incubated with DMPC/DMPG liposomes (5 μmol phospholipids) containing 33.7 mol % Chol
  amount of QS-21 causing maximum hemolysis: approximately 4 μg
QS-21 pre-incubated with DMPC/DMPG liposomes (5 μmol phospholipids) containing 43 mol % Chol
  amount of QS-21 causing maximum hemolysis: approximately 4 μg
QS-21 pre-incubated with DMPC/DMPG liposomes (5 μmol phospholipids) having 55 mol % Chol
  amount of QS-21 up to which the hemolytic effect was completely blocked: ≥ 200 µg
Free QS-21, no liposomes
  amount of QS-21 causing maximum hemolysis: approximately 2 μg
